How the values were obtained:
[1] = target: T1, EcFADS (FAD synthase, RibF; RFK activity) (Escherichia coli, UniProt P0AG40, H187L/N282D, form not given); assay: RFK assay, FMN by HPLC fluorescence, Michaelis-Menten fit; assay type: biochemical; conditions: riboflavin kinase activity; 0.01-0.8 mM ATP, saturated RF; 15 mM MgCl2, 10 mM Na2SO3, potassium phosphate pH 7.5, 37 °C; read-out: KATP m
T1 construct: full-length bifunctional RibF in pETDuet-1 (BamHI/NotI), His-tagged, Ni-NTA purified, expressed in E. coli BL21(DE3); natural BL21 variant H115L (not engineered); about 35 kDa; mainly monomer; tag removal not mentioned
T1 sequence (P0AG40 whole entry H187L/N282D, form open): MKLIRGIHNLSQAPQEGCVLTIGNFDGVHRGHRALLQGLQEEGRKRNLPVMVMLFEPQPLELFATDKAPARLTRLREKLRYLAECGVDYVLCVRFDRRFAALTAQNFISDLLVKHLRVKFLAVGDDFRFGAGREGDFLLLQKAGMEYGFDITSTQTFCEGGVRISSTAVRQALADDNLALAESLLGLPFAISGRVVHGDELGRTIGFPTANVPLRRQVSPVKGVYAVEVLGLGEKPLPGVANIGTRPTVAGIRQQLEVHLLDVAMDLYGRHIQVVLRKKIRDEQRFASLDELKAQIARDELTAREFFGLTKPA
From the text: (§1) RFK assay, FMN by HPLC fluorescence, Michaelis-Menten fit on EcFADS (FAD synthase, RibF; RFK activity)

[2] = target: T2, EcFADS (FAD synthase, RibF; RFK activity) (Escherichia coli, UniProt P0AG40); assay: as above; assay type: biochemical; conditions: riboflavin kinase activity; 0.01-0.8 mM ATP, saturated RF; 15 mM MgCl2, 10 mM Na2SO3, potassium phosphate pH 7.5, 37 °C; read-out: KATP m
T2 construct: full-length bifunctional RibF in pETDuet-1 (BamHI/NotI), His-tagged, Ni-NTA purified, expressed in E. coli BL21(DE3); natural BL21 variant H115L (not engineered); about 35 kDa; mainly monomer; tag removal not mentioned
From the text: as §1

Km [1]: 91.1 ± 36.7 µM
Km [2]: 10.2 ± 2.55 µM
Structure (SMILES): Nc1ncnc2c1ncn2[C@@H]1O[C@H](COP(=O)(O)OP(=O)(O)OP(=O)(O)O)[C@@H](O)[C@H]1O [ATP]

— article PMC11047187 (Synthetic and Systems Biotechnology, 2024)
